Data: US10030047B2 (Hoffmann-La Roche Inc., priority 2015, dated 2018)
Converted amounts (≈) assume the structure as drawn.

Each molecule was assayed on A. baumannii strain ATCC19606 (assay: Minimum inhibitory concentration (MIC) determination, microbroth dilution (CLSI)). Conditions: Acinetobacter baumannii, ATCC19606, 20 h, read-out: ATCC19606 MIC.
Format: cell-based
Description: The in vitro antimicrobial activity of the compounds was determined through microbroth minimum inhibitory concentration (MIC) methodology performed according to the Clinical and Laboratory Standard Institute guidelines (CLSI—M07-A9 Jan. 2012. Methods for Dilution Antimicrobial Susceptibility Tests for Bacteria That Grow Aerobically; Approved Standard—Ninth Edition, Clinical and Laboratory Standards Institute, Wayne/PA, US and the CLSI—M100-S24 Jan. 2014. Performance Standards for Antimicrobial Susceptibility Testing; Approved Standard—Fourth Informational Supplement, Clinical and Laboratory Standards Institute, Wayne/PA, US).
The compound stock solution was freshly prepared at 10× the required top concentration for the MIC determination, i.e. at 1280 mg/L, by reconstitution of the dry compound in 50:50 water:DMSO.
Polystyrene non-treated 96 wells microtiter plates were used for preparing panel containing compound serial twofold diluted at two times the final testing concentration (e.g. range from 64 to 0.06 μg/ml) in cation adjusted Mueller Hinton broth medium (CAMHB).
Inoculum was prepared by the “direct colony suspension method”. Colonies of A. baumannii ATCC19606 or clinical isolates were suspended in saline solution and adjusted to 0.5 McFarland, diluted 100 times in CAMHB broth and 50 μl added to each well (final concentration of cells ˜5×10^(5) CFU/ml and Final volume/well of 100 μl). Microtiter plates were sealed and incubated at 35±2° C.
MICs values were read after 20 hours of incubation and recorded as the lowest concentration of the antimicrobial that inhibits more or equal to 80% of growth of the organism as detected by the unaided eye and using a microtiter plate optical density reader (OD 600 nm).
Tables 2, 3, 4 and 5 provide the minimum inhibitory concentration (MIC) in microgram per milliliter of the compounds of present invention obtained against the A. baumannii strain ATCC19606 (Tables 2, 3, 4 and 5).

Row | SMILES | MIC [µg/mL]
1 | CN1C(=O)[C@H](CCCCN)NC(=O)[C@H](CCCN)NCc2cccnc2Sc2c(Cl)ccc(Cl)c2CNC(=O)[C@@H]1Cc1c[nH]c2ccccc12 [Example 38, (11S,14S,17S)-14-(4-Amino-butyl)-11-(3-amino-propyl)-22,25-dichloro-17-(1H-indol-3-ylmethyl)-16-methyl-2-thia-4,10,13,16,19-pentaaza-tricyclo[19.4.0.0*3,8*]pentacosa-1(25),3(8),4,6,21,23-hexaene-12,15,18-trione] | 0.5 (≈ 0.676 µM)

Same assay, conditions: Acinetobacter baumannii; A. baumannii ATCC19606; CAMHB; read after 20 hours; >=80% growth inhibition; read-out: ATCC19606 MIC

Row | SMILES | MIC [µg/mL]
2 | CN1C(=O)[C@H](CCCCN)NC(=O)[C@H](CCCN)NCc2cc(F)ccc2Sc2c(Cl)cc(Cl)cc2CNC(=O)[C@@H]1Cc1c[nH]c2ccccc12 [Example 27, (12S,15S,18S)-15-(4-Amino-butyl)-18-(3-amino-propyl)-4,6-dichloro-23-fluoro-12-(1H-indol-3-ylmethyl)-13-methyl-2-thia-10,13,16,19-tetraaza-tricyclo[19.4.0.0*3,8*]pentacosa-1(25),3,5,7,21,23-hexaene-11,14,17-trione] | 2 (≈ 2.64 µM)
3 | CN1C(=O)[C@H](CCCCN)NC(=O)[C@H](CCCN)NCc2cccnc2Sc2c(Cl)cccc2CNC(=O)[C@@H]1Cc1c[nH]c2ccccc12 [Example 28, (11S,14S,17S)-14-(4-Amino-butyl)-11-(3-amino-propyl)-25-chloro-17-(1H-indol-3-ylmethyl)-16-methyl-2-thia-4,10,13,16,19-pentaaza-tricyclo[19.4.0.0*3,8*]pentacosa-1(25),3,5,7,21,23-hexaene-12,15,18-trione] | 2 (≈ 2.84 µM)
4 | Cc1[nH]c2ccccc2c1C[C@H]1C(=O)NCc2ccccc2Sc2ccccc2CN[C@@H](CCCN)C(=O)N[C@@H](CCCCN)C(=O)N1C [Example 32, (12S,15S,18S)-15-(4-Amino-butyl)-18-(3-amino-propyl)-13-methyl-12-(2-methyl-1H-indol-3-ylmethyl)-2-thia-10,13,16,19-tetraaza-tricyclo[19.4.0.0*3,8*]pentacosa-1(21),3,5,7,22,24-hexaene-11,14,17-trione] | 2 (≈ 2.92 µM)
5 | CN1C(=O)[C@H](CCCCN)NC(=O)[C@H](CCCN)NCc2cccnc2Sc2ccc(Cl)cc2CNC(=O)[C@@H]1Cc1c[nH]c2ccccc12 [Example 33, (11S,14S,17S)-14-(4-Amino-butyl)-11-(3-amino-propyl)-23-chloro-17-(1H-indol-3-ylmethyl)-16-methyl-2-thia-4,10,13,16,19-pentaaza-tricyclo[19.4.0.0*3,8*]pentacosa-1(25),3,5,7,21,23-hexaene-12,15,18-trione] | 1 (≈ 1.42 µM)
6 | CN1C(=O)[C@H](CCCCN)NC(=O)[C@H](CCCN)NCc2cccnc2Sc2c(cccc2C(F)(F)F)CNC(=O)[C@@H]1Cc1c[nH]c2ccccc12 [Example 36, (11S,14S,17S)-14-(4-Amino-butyl)-11-(3-amino-propyl)-17-(1H-indol-3-ylmethyl)-16-methyl-25-trifluoromethyl-2-thia-4,10,13,16,19-pentaaza-tricyclo[19.4.0.0*3,8*]pentacosa-1(25),3,5,7,21,23-hexaene-12,15,18-trione] | 1 (≈ 1.35 µM)
7 | CN1C(=O)[C@H](CCCCN)NC(=O)[C@H](CCCN)NCc2cccnc2Sc2ccc(Cl)c(Cl)c2CNC(=O)[C@@H]1Cc1c[nH]c2ccccc12 [Example 37, (11S,14S,17S)-14-(4-Amino-butyl)-11-(3-amino-propyl)-22,23-dichloro-17-(1H-indol-3-ylmethyl)-16-methyl-2-thia-4,10,13,16,19-pentaaza-tricyclo[19.4.0.0*3,8*]pentacosa-1(25),3,5,7,21,23-hexaene-12,15,18-trione] | 2 (≈ 2.7 µM)
8 | CN1C(=O)[C@H](CCCCN)NC(=O)[C@H](CCCN)NCc2cccnc2Sc2c(Cl)ccc(C(F)(F)F)c2CNC(=O)[C@@H]1Cc1c[nH]c2ccccc12 [Example 39, (11S,14S,17S)-14-(4-Amino-butyl)-11-(3-amino-propyl)-25-chloro-17-(1H-indol-3-ylmethyl)-16-methyl-22-trifluoromethyl-2-thia-4,10,13,16,19-pentaaza-tricyclo[19.4.0.0*3,8*]pentacosa-1(25),3,5,7,21,23-hexaene-12,15,18-trione] | 0.5 (≈ 0.647 µM)
9 | CN1C(=O)[C@H](CCCCN)NC(=O)[C@H](CCCN)NCc2cccnc2Sc2c(F)ccc(F)c2CNC(=O)[C@@H]1Cc1c[nH]c2ccccc12 [Example 40, (11S,14S,17S)-14-(4-Amino-butyl)-1-(3-amino-propyl)-22,25-difluoro-17-(1H-indol-3-ylmethyl)-16-methyl-2-thia-4,10,13,16,19-pentaaza-tricyclo[19.4.0.0*3,8*]pentacosa-1(25),3(8),4,6,21,23-hexaene-12,15,18-trione] | 0.5 (≈ 0.707 µM)

Continued, values first:

Row | MIC [µg/mL] | SMILES
10 | 2 (≈ 2.83 µM) | CN1C(=O)[C@H](CCCCN)NC(=O)[C@H](CCCN)NCc2ccccc2Sc2c(F)ccc(F)c2CNC(=O)[C@@H]1Cc1c[nH]c2ccccc12 [Example 29, (12S,15S,18S)-15-(4-Amino-butyl)-18-(3-amino-propyl)-4,7-difluoro-12-(1H-indol-3-ylmethyl)-13-methyl-2-thia-10,13,16,19-tetraaza-tricyclo[19.4.0.0*3,8*]pentacosa-1(21),3,5,7,22,24-hexaene-11,14,17-trione]
11 | 2 (≈ 2.91 µM) | CN1C(=O)[C@H](CCCCN)NC(=O)[C@H](CCCN)NCc2ccccc2Sc2c(F)cccc2CNC(=O)[C@@H]1Cc1c[nH]c2ccccc12 [Example 30, (12S,15S,18S)-15-(4-Amino-butyl)-18-(3-amino-propyl)-4-fluoro-12-(1H-indol-3-ylmethyl)-13-methyl-2-thia-10,13,16,19-tetraaza-tricyclo[19.4.0.0*3,8*]pentacosa-1(21),3,5,7,22,24-hexaene-11,14,17-trione]
12 | 1 (≈ 1.29 µM) | CN1C(=O)[C@H](CCCCN)NC(=O)[C@H](CCCN)NCc2ccccc2Sc2c(cc(Cl)cc2C(F)(F)F)CNC(=O)[C@@H]1Cc1c[nH]c2ccccc12 [Example 31, (12S,15S,18S)-15-(4-Amino-butyl)-18-(3-amino-propyl)-6-chloro-12-(1H-indol-3-ylmethyl)-13-methyl-4-trifluoromethyl-2-thia-10,13,16,19-tetraaza-tricyclo[19.4.0.0*3,8*]pentacosa-1(25),3,5,7,21,23-hexaene-11,14,17-trione]
13 | 16 (≈ 22.7 µM) | CN1C(=O)[C@H](CCCCN)NC(=O)[C@H](CCCN)NCc2cccnc2Sc2cccc(Cl)c2CNC(=O)[C@@H]1Cc1c[nH]c2ccccc12 [Example 34, (11S,14S,17S)-14-(4-Amino-butyl)-11-(3-amino-propyl)-22-chloro-17-(1H-indol-3-ylmethyl)-16-methyl-2-thia-4,10,13,16,19-pentaaza-tricyclo[19.4.0.0*3,8*]pentacosa-1(25),3,5,7,21,23-hexaene-12,15,18-trione]
14 | 8 (≈ 11.6 µM) | CN1C(=O)[C@H](CCCCN)NC(=O)[C@H](CCCN)NCc2c(F)cccc2Sc2ccccc2CNC(=O)[C@@H]1Cc1c[nH]c2ccccc12 [Example 35, (12S,15S,18S)-15-(4-Amino-butyl)-18-(3-amino-propyl)-22-fluoro-12-(1H-indol-3-ylmethyl)-13-methyl-2-thia-10,13,16,19-tetraaza-tricyclo[19.4.0.0*3,8*]pentacosa-1(21),3,5,7,22,24-hexaene-11,14,17-trione]
